Reference: PubChem BioAssay AID743426 (The Scripps Research Institute Molecular Screening Center, 2014)
Activity calls are given as the source filed them. No rule for the calls is given here.

Biological target: Sphingosine 1-phosphate receptor 1 (Homo sapiens) (UniProt P21453)
Assay: S1P1 receptor activation, potency – cell-based, fluorescence, late-stage, counter-screen for S1PR3 antagonist project, dose response (AID 743426)
Conditions: S1P1-expressing cells, agonist counterscreen

Sphingosine 1-phosphate receptor 1 (Homo sapiens), sequence (P21453 whole entry, looked up): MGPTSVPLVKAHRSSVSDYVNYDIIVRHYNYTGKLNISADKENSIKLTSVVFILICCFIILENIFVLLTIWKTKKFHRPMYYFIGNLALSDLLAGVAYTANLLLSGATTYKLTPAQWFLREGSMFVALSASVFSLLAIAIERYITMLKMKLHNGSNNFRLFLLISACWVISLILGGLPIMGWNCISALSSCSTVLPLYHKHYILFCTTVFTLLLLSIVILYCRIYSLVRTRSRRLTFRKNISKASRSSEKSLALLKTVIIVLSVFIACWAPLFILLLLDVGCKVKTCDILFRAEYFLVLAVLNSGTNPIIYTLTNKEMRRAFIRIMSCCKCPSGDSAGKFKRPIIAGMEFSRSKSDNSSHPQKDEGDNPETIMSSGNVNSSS

SMILES | EC50
O=C(NC(c1ccc(Cl)cc1)c1nc(-c2ccccc2)no1)c1ccc(Cl)c(Cl)c1 (configuration not stated) | > 50 µM (inactive)
O=C(NC(c1ccc(Cl)cc1)c1nc(-c2ccccc2)no1)c1cccc(Cl)c1 (configuration not stated) | > 50 µM (inactive)
O=C(NC(c1cccc(Cl)c1)c1nc(-c2ccccc2)no1)c1ccc(Cl)c(Cl)c1 (configuration not stated) | > 50 µM (inactive)
O=C(NC(c1ccc(Br)cc1)c1nc(-c2ccccc2)no1)c1ccc(Cl)c(Cl)c1 (configuration not stated) | > 50 µM (inactive)
O=C(NC(Cc1ccccc1)c1nc(-c2ccccc2)no1)c1cccc(Cl)c1 (configuration not stated) | inactive
O=C(NC(c1ccc(Cl)c(Cl)c1)c1nc(-c2ccccc2)no1)c1ccccc1 (configuration not stated) | > 50 µM (inactive)
O=C(NC(c1nc(-c2ccccc2)no1)C1CCOCC1)c1ccc(Cl)c(Cl)c1 (configuration not stated) | > 50 µM (inactive)
O=C(NC(c1ccc(Cl)c(Cl)c1)c1nc(-c2ccccc2)no1)c1ccc(Cl)c(Cl)c1 (configuration not stated) | > 50 µM (inactive)
Cc1ccc(C(NC(=O)c2cccc(Cl)c2)c2nc(-c3ccccc3)no2)cc1 (configuration not stated) | > 50 µM (inactive)
N#Cc1ccc(C(=O)NC(c2ccc(Cl)c(Cl)c2)c2nc(-c3ccccc3)no2)cc1 (configuration not stated) | > 50 µM (inactive)
O=C(NC(c1cccc(Cl)c1)c1nc(-c2ccccc2)no1)c1cc(Cl)cc(Cl)c1 (configuration not stated) | > 50 µM (inactive)
O=C(NC(c1nc(-c2ccccc2)no1)C1CCCCC1)c1ccc(Cl)c(Cl)c1 (configuration not stated) | > 50 µM (inactive)
CCc1ccc(C(NC(=O)c2cccc(Cl)c2)c2nc(-c3ccccc3)no2)cc1 (configuration not stated) | > 50 µM (inactive)
O=C(NC(c1ccccc1)c1nc(-c2ccccc2)no1)c1cccc(Cl)c1 (configuration not stated) | > 50 µM (inactive)
O=C(c1cccc(Cl)c1)N(CCO)C(c1ccc(Cl)c(Cl)c1)c1nc(-c2ccccc2)no1 (configuration not stated) | inactive
Cc1ccc(C(=O)NC(c2ccccc2)c2nc(-c3ccccc3)no2)cc1 (configuration not stated) | > 50 µM (inactive)
O=C(NC(c1ccc(Cl)cc1)c1nc(-c2ccccn2)no1)c1cccc(Cl)c1 (configuration not stated) | > 50 µM (inactive)
O=C(NC(c1ccccc1)c1nc(-c2ccccc2)no1)c1cccc(Br)c1 (configuration not stated) | inactive
O=C(NC(c1ccccc1)c1nc(-c2ccccc2)no1)c1ccc(Cl)cc1 (configuration not stated) | > 50 µM (inactive)
O=C(NC(c1ccc(Cl)c(Cl)c1)c1nc(-c2ccccc2)no1)c1ccc(Cl)cc1 (configuration not stated) | > 50 µM (inactive)
O=C(NC(c1ccc(Cl)c(Cl)c1)c1nc(-c2ccccc2)no1)c1cccc(Cl)c1 (configuration not stated) | > 50 µM (inactive)
COc1ccc(C(=O)NC(c2ccccc2)c2nc(-c3ccccc3)no2)cc1 (configuration not stated) | > 50 µM (inactive)
O=C(NC(c1cccc(Cl)c1)c1nc(-c2ccccc2)no1)c1cccc(Cl)c1 (configuration not stated) | > 50 µM (inactive)
O=C(NC(c1ccccc1)c1nc(-c2ccccc2)no1)c1cccc(Cl)n1 (configuration not stated) | inactive
O=C(NC(c1ccc(Cl)cc1)c1nc(-c2ccccc2)no1)c1ccc(Cl)c(Br)c1 (configuration not stated) | > 50 µM (inactive)
O=C(NC(c1ccc(Cl)cc1)c1nc(-c2ccccc2)no1)c1cccc(Br)c1 (configuration not stated) | > 50 µM (inactive)
O=C(NC(c1ccc(Cl)cc1)c1nc(-c2cccc(Cl)c2)no1)c1cccc(Cl)c1 (configuration not stated) | > 50 µM (inactive)
